Results published in patent US20130324725A1, “AMINOPYRIMIDINES USEFUL AS KINASE INHIBITORS” (VERTEX PHARMACEUTICALS INCORPORATED, priority 2007, published 2013).
pIC50, pKi: −log10 of the molar value. Read-outs that look alike come from different tables or passages of the source.

Columns and labels:
[1] = tested on: Colo205 cells; assay: Analysis of cell proliferation and viability; format: cell-based; details: Homo sapiens
Method: Compounds were screened for their ability to inhibit cell proliferation and their effects on cell viability using Colo205 cells obtained from ECACC and using the assay shown below.
Colo205 cells were seeded in 96 well plates and serially diluted compound was added to the wells in duplicate. Control groups included untreated cells, the compound diluent (0.1% DMSO alone) and culture medium without cells. The cells were then incubated for 72 or 96 hrs at 37 C in an atmosphere of 5% CO2/95% humidity.
To measure proliferation, 3 h prior to the end of the experiment 0.5 μCi of 3H thymidine was added to each well. Cells were then harvested and the incorporated radioactivity counted on a Wallac microplate beta-counter. Cell viability was assessed using Promega CellTiter 96AQ to measure MTS conversion. Dose response curves were calculated using either Prism 3.0 (GraphPad) or SoftMax Pro 4.3.1 LS (Molecular Devices) software.

[2] = biological target: T1, T315I mutant of human Abl (Homo sapiens, UniProt P00519, T315I); assay: Mutant Abl kinase (T315I) activity inhibition assay; format: biochemical; details: at Upstate Cell Signaling Solutions
T1 construct: purchased Upstate Cell Signaling Solutions (Dundee, UK), assay run at the vendor
Method: Compounds were screened for their ability to inhibit the T315I mutant form of human Abl at Upstate Cell Signaling Solutions (Dundee, UK). In a final reaction volume of 25 μl, the T315I mutant of human Abl (5-10 mU) was incubated with 8 mM MOPS pH 7.0, 0.2 mM EDTA, 50 μM EAIYAAPFAKKK, 10 mM Mg Acetate, [γ-^33P-ATP](specific activity approx. 500 cpm/pmol, […] final assay concentration) and the test compound of interest at final concentrations over the range […]. The reaction was initiated by the addition of the MgATP mix. After incubation for 40 minutes at room temperature, the reaction was stopped by the addition of 5 μl of a 3% phosphoric acid solution. 10 μl of the reaction was then spotted onto a P30 filtermat and washed three times for 5 minutes in 75 mM phosphoric acid and once in methanol prior to drying and scintillation counting. […]

[3] = biological target: T2, Aurora-2 (Aurora A) (Homo sapiens, UniProt O14965); assay: Aurora-2 (Aurora A) inhibition assay, coupled enzyme; format: biochemical; details: 400 μM ATP, 30° C.
T2 sequence (O14965 1-403): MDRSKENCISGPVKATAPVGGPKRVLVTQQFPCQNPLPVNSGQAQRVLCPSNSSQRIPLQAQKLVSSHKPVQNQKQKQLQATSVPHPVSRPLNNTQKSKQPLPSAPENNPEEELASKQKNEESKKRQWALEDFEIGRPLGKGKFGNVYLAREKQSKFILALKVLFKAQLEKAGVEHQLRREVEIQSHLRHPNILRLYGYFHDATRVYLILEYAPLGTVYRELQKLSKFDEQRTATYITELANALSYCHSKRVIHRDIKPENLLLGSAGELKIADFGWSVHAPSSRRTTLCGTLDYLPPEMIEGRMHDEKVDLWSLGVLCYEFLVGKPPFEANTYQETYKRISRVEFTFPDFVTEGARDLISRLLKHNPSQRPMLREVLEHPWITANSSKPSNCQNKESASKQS
Method: Compounds were screened for their ability to inhibit Aurora-2 using a standard coupled enzyme assay (Fox et al., Protein Sci., (1998) 7, 2249). Assays were carried out in a mixture of 100 mM Hepes (pH7.5), 10 mM MgCl2, 1 mM DTT, 25 mM NaCl, 2.5 mM phosphoenolpyruvate, 300 μM NADH, 30 μg/ml pyruvate kinase and 10 μg/ml lactate dehydrogenase. Final substrate concentrations in the assay were 400 μM ATP (Sigma Chemicals) and 570 μM peptide (Kemptide, American Peptide, Sunnyvale, Calif.). Assays were carried out at 30° C. and in the presence of 40 nM Aurora-2.
An assay stock buffer solution was prepared containing all of the reagents listed above, with the exception of Aurora-2 and the test compound of interest. 55 μl of the stock solution was placed in a 96 well plate followed by addition of 2 μl of DMSO stock containing serial dilutions of the test compound (typically starting from a final concentration of 7.5 μM). The plate was preincubated for 10 minutes at 30° C. and the reaction initiated by addition of 10 μl of Aurora-2. Initial reaction rates were determined with a Molecular Devices SpectraMax Plus plate reader over a 10 minute time course. IC50 and Ki data were calculated from non-linear regression analysis using the Prism software package (GraphPad Prism version 3.0cx for Macintosh, GraphPad Software, San Diego Calif., USA).

[4] = biological target: Aurora-1 (Aurora B) (Homo sapiens, UniProt Q96GD4); assay: Aurora-1 (Aurora B) inhibition assay (radiometric); format: biochemical; details: 800 μM ATP, 25° C.; read-out: Ki, Aurora-1 (Aurora B) radiometric assay (sentence prints Aurora A)
Method: An assay buffer solution was prepared which consisted of 25 mM HEPES (pH 7.5), 10 mM MgCl2, 0.1% BSA and 10% glycerol. A 22 nM Aurora-B solution, also containing 1.7 mM DTT and 1.5 mM Kemptide (LRRASLG), was prepared in assay buffer. To 22 μL of the Aurora-B solution, in a 96-well plate, was added 2 μl of a compound stock solution in DMSO and the mixture allowed to equilibrate for 10 minutes at 25° C. The enzyme reaction was initiated by the addition of 16 μl stock [γ-^33P]-ATP solution ([…]) prepared in assay buffer, to a final assay concentration of 800 μM. The reaction was stopped after 3 hours by the addition of 16 μL 500 mM phosphoric acid and the levels of ^33P incorporation into the peptide substrate were determined by the following method.
A phosphocellulose 96-well plate (Millipore, Cat no. MAPHNOB50) was pre-treated with 100 μL of a 100 mM phosphoric acid prior to the addition of the enzyme reaction mixture (40 μL). […] Levels of non-enzyme catalyzed background radioactivity were determined by adding 16 μL of the 500 mM phosphoric acid to control wells, containing all assay components (which acts to denature the enzyme), prior to the addition of the [γ-^33P]-ATP solution. Levels of enzyme catalyzed ^33P incorporation were calculated by subtracting mean background counts from those measured at each inhibitor concentration. […]

[5] = COLO 205, 72 hours, read-out: IC50 values after 72 hours
[6] = COLO 205, 96 hours, read-out: IC50 values after 96 hours

Aurora-1 (Aurora B), sequence (Q96GD4 whole entry): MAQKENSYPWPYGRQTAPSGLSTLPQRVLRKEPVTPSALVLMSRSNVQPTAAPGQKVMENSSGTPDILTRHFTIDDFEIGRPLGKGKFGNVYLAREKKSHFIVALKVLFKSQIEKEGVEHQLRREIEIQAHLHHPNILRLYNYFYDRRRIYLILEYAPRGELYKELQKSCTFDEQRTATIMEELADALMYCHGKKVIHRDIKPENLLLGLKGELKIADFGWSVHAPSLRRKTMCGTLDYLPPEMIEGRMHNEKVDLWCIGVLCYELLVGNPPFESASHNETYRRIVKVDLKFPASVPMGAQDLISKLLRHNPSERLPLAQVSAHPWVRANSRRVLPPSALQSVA

Row | SMILES | pIC50 [1, 5] | other results
1 | Cc1cc(Nc2cc(N3CCN(C4CCCCC4)CC3)nc(Sc3ccc4nc(C(F)(F)F)n(C)c4c3)n2)[nH]n1 [Compound I-3] | > 7.30 | pIC50 [1, 6]: > 7.30
2 | Cc1cc(Nc2cc(N3CCN(C4CC4)CC3)nc(Sc3ccc4nc(CC(F)(F)F)n(C)c4c3)n2)[nH]n1 [Compound I-5] | > 7.30 | 
3 | Cc1cc(Nc2cc(N3CCN(C(C)(C)C)CC3)nc(Sc3ccc4ncn(C)c4c3)n2)[nH]n1 [Compound I-18] |  | pIC50 [1, 6]: > 7.30
4 | Cc1cc(Nc2cc(N3CCN(C4CCCCC4)CC3)nc(Sc3cc(F)c4nc(C)ccc4c3)n2)[nH]n1 [Compound I-1] | 7.00 to 7.30 | 
5 | Cc1cc(Nc2cc(N3CCN(C4CC4)CC3)nc(Sc3ccc4c(c3)CN(CC(F)(F)F)C4=O)n2)[nH]n1 [Compound I-20] | > 7.30 | 
6 | Cc1cc(Nc2cc(N3CCN(C4CCCCC4)CC3)nc(Sc3ccc4nc(CC(F)(F)F)n(C)c4c3)n2)[nH]n1 [Compound I-19] | > 7.30 | 
7 | Cc1cc(Nc2cc(N3CCN(CC(F)(F)F)CC3)nc(Sc3ccc4c(c3)CN(CC(F)(F)F)C4=O)n2)[nH]n1 [Compound I-24] | 7.00 to 7.30 | 
8 | Cc1cc(Nc2cc(N3CCN(C4CCN(C)CC4)CC3)nc(Sc3cc(F)c4nc(C)ccc4c3)n2)[nH]n1 [Compound I-13, 2-(8-fluoro-2-methylquinolin-6-ylthio)-N-(3-methyl-1H-pyrazol-5-yl)-6-(4-(1-methylpiperidin-4-yl)piperazin-1-yl)pyrimidin-4-amine] | > 7.30 | 
9 | Cc1cc(Nc2cc(N3CCN(C4CCCCC4)CC3)nc(Sc3ccc4c(c3)CN(CC(F)(F)F)C4=O)n2)[nH]n1 [Compound I-25] | > 7.30 | 
10 | Cc1cc(Nc2cc(N3CCN(C4CCN(C)CC4)CC3)nc(Sc3ccc4nc(C(F)(F)F)n(C)c4c3)n2)[nH]n1 [Compound I-12] | > 7.30 | 
11 | Cc1cc(Nc2cc(N3CCN(C(C)(C)CF)CC3)nc(Sc3ccc4c(c3)CN(CC(F)(F)F)C4=O)n2)[nH]n1 [Compound I-2] | 7.00 to 7.30 | 
12 | Cc1cc(Nc2cc(N3CCN(C(C)(C)CF)CC3)nc(Sc3ccc4nc(CC(F)(F)F)n(C)c4c3)n2)[nH]n1 [Compound I-7] | > 7.30 | 
13 | Cc1cc(Nc2cc(N3CCN(C4CCN(C)CC4)CC3)nc(Sc3ccc4nc(C(F)(F)F)ccc4c3)n2)[nH]n1 [Compound I-17] | 7.00 to 7.30 | pKi [2]: > 7.60
14 | Cc1cc(Nc2cc(N3CCN(C4CC4)CC3)nc(Sc3ccc4nc(C(F)(F)F)n(C)c4c3)n2)[nH]n1 [Compound I-10] | 7.00 to 7.30 | pIC50 [1, 6]: > 7.30
15 | Cc1cc(Nc2cc(N3CCN(C4CCCCC4)CC3)nc(Sc3ccc4nc(C(F)(F)F)[nH]c4c3)n2)[nH]n1 [Compound I-8] | > 7.30 | 
16 | Cc1cc(Nc2cc(N3CCN(C4CC4)CC3)nc(Sc3ccc4nc(C(F)(F)F)[nH]c4c3)n2)[nH]n1 [Compound I-4] | 7.00 to 7.30 | 
17 | Cc1cc(Nc2cc(N3CCN(CC(F)(F)F)CC3)nc(Sc3ccc4nc(C(F)(F)F)[nH]c4c3)n2)[nH]n1 [Compound I-9] |  | pKi [3]: ≥ 9.00; pKi [4]: 7.30 to 7.70
18 | Cc1cc(Nc2cc(N3CCN(C(C)(C)C)CC3)nc(Sc3ccc4c(cnn4C)c3)n2)[nH]n1 [Compound I-16] |  | pIC50 [1, 6]: > 7.30
